Measured values taken from patent publication US11008346B2, “Beta-lactamase inhibitors” (priority 2014, dated 2021).
Where two headings read alike, the source gives them in different places.

How the values were obtained:
SHV-5 β-lactamase = target: T1, SHV-5 β-lactamase (Klebsiella pneumoniae, UniProt P0A3M1); assay: β-lactamase enzyme inhibition, SHV-5; type: biochemical
T1 construct: made in house; host or cells: E. coli BL21(DE3)
Method in brief: (§1)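 Native untagged enzymes expressed in E. coli BL21(DE3) and purified by cation exchange and gel filtration were preincubated with inhibitor for 15 min at 37° C. Hydrolysis was followed for 10 min: nitrocefin (100 μM final, 486 nm) for OXA-1 and p99 AmpC, imipenem (300 nm) for KPC-2, cefotaxime (260 nm) for SHV-5; IC50 from initial rates.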

KPC-2 β-lactamase = target: T2, KPC-2 β-lactamase (Klebsiella pneumoniae, UniProt Q9F663); assay: β-lactamase enzyme inhibition, KPC-2; type: biochemical
T2 construct: made in house; host or cells: E. coli BL21(DE3)
T2 sequence (Q9F663 25-293, looked up): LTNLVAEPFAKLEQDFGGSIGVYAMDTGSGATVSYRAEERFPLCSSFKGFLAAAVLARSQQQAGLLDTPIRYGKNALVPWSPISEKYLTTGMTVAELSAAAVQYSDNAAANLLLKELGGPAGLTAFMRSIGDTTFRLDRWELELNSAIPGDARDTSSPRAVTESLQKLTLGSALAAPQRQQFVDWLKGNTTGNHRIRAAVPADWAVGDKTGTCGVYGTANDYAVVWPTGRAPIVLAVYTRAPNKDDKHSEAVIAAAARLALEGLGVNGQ
Method in brief: as §1

[1] = target: T3, VIM-2 metallo β-lactamase (Pseudomonas aeruginosa, UniProt Q9K2N0); assay: β-lactamase enzyme inhibition, VIM-2; type: biochemical; conditions: Nitrocefin 100 μM, 486 nm; 15 min at 37° C. preincubation; read-out: IC50 VIM-2 (Class B)
T3 construct: made in house; host or cells: E. coli BL21(DE3)
Method in brief: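 VIM-2 purified by Q sepharose anion exchange (50 mM Hepes pH 7.5, 0-600 mM NaCl gradient, two runs, >90% purity). Enzyme preincubated with inhibitor 15 min at 37° C; nitrocefin 100 μM final, absorbance at 486 nm followed 10 min. IC50 from initial hydrolysis rates versus inhibitor-free controls.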

p99 AmpC β-lactamase = target: T4, p99 AmpC β-lactamase (Enterobacter cloacae, UniProt P05364); assay: β-lactamase enzyme inhibition, p99 AmpC; type: biochemical
T4 construct: made in house; host or cells: E. coli BL21(DE3)
T4 sequence (P05364 21-381): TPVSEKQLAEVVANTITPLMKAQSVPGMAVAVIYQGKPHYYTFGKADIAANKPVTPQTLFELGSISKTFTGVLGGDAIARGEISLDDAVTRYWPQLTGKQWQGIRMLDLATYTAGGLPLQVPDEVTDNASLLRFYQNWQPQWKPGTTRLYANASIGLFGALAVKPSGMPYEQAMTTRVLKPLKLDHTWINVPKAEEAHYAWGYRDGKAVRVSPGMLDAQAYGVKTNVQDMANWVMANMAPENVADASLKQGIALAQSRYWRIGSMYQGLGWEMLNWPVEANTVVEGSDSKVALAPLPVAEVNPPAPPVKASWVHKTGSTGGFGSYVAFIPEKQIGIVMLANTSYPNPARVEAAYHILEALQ
Method in brief: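 Native untagged E. cloacae p99 AmpC was expressed in E. coli BL21(DE3) and purified by cation exchange and gel filtration. Enzyme was preincubated with inhibitor at 37°C for 15 min.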

OXA-1 β-lactamase = target: T5, OXA-1 β-lactamase (Escherichia coli, UniProt P13661); assay: β-lactamase enzyme inhibition, OXA-1; type: biochemical; conditions: Nitrocefin 100 μM, 486 nm; 15 min at 37° C. preincubation; read-out: IC50 OXA-1 (Class D)
T5 construct: made in house; host or cells: E. coli BL21(DE3)
T5 sequence (P13661 26-276): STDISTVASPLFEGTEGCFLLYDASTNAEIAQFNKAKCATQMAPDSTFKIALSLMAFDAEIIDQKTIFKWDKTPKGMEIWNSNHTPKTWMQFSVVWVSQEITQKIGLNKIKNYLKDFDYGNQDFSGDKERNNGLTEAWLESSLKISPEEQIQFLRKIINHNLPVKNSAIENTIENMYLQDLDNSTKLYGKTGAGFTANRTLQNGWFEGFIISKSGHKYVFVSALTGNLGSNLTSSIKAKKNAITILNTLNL
Procedure: For SHV-5, Kpc-2, p99AmpC and OXA-1 β-lactamases, E. coli BL21(DE3) bacterial cells carrying expression plasmids (expressed as native untagged proteins) for the individual β-lactamases were grown in 1 L of Superbroth (Teknova Inc. Hollister, Calif.) supplemented with 100 μg/ml kanamycin selection and 1×5052 (0.5% glycerol, 0.05% glucose and 0.2% α-lactose) at 35° C. for 18-20 hours. Cells were harvested by centrifugation (4,000×g, 4° C., 20 min), resuspended in 50 ml of 10 mM HEPES pH 7.5 ( 1/20 of the initial volume). The cells were lysed by sonication (5 pulses of 45 seconds) at 45 W on ice. The lysates were clarified by centrifugation at 10,000×g for 40 minutes at 4° C. Samples were diluted 5-fold in 50 mM sodium acetate pH 5.0, stored overnight at 4° C., after which they were centrifuged at 10,000×g for 30 minutes to clarify, and filtered through 0.45 μm filters. The samples were loaded onto a 5 ml Capto S sepharose cation exchange column (GE Healthcare) pre-equilibrated with 50 mM sodium acetate pH 5.0. The column was washed with 5 column volumes of 50 mM sodium acetate pH 5.0 to wash out unbound protein and a linear gradient of NaCl (0 to 500 mM) was used to elute the protein (over 16 CV) from the column. Fractions were assayed for […] activity using Centa (Calbiochem, Gibbstown, N.J.) or Nitrocefin (EMD Millipore chemicals, Darmstadt, Germany) as a reporter β-lactamase substrate for activity in the isolated fractions. Active fractions were pooled, concentrated and further purified by gel filtration chromatography on a Superdex 75 prep grade gel filtration column (GE Healthcare, Piscataway, N.J.) pre-equilibrated in 50 mM Hepes pH 7.5, 150 mM NaCl. Active fractions were pooled, concentrated, and quantitated by BCA protein determination (Thermo Scientific, Rockford, Ill.), dialyzed into PBS and frozen at −80° C. in 20% glycerol until use.
An equal volume of diluted enzyme stock was added, and the plates were incubated at 37° C. for 15 min. Nitrocefin was used as substrate for p99 AmpC, VIM-2 and OXA-1 and dispensed into each well at a final concentration of 100 μM. Absorbance at 486 nm was immediately monitored for 10 min using a Biotek Powerwave XS2 microplate spectrophotometer using the GEN5 software package (Biotek Instruments, Winooski Vt.). In an analogous fashion, imipenem was used as substrate for KPC-2 and Cefotaxime was used for SHV-5, while changes in absorbance upon hydrolysis of the β-lactam ring were monitored at 300 nm and 260 nm respectively in UV-transparent 96-well microtiter assay plates. Maximum rates of hydrolysis were compared to those in control wells (without inhibitors), and percentages of enzyme inhibition were calculated for each concentration of inhibitor. The concentration of inhibitor needed to reduce the initial rate of hydrolysis of substrate by 50% (IC50) was calculated as the residual activity of β-lactamase at 486 nm using GraFit version 7 kinetics software package (Erithacus Software, Surrey, UK).
Using the methodology described above, examples of the current invention were evaluated for their ability to inhibit β-lactamase enzymes from all four Ambler classifications (A through D). […] NT=Not tested.

[2] = system: E. coli ESBL4 expressing CTX-M-15; assay: broth microdilution MIC, E. coli CTX-M-15; type: cell-based; conditions: Fixed CAZ (ceftazidime) 4 μg/mL
Method in brief: (§2)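 Visual MIC readout after 16-20 hours at 37° C, reflecting compound concentration that restores growth inhibition by a beta-lactam held constant at 4 μg/mL. Compound was titrated 2-fold, 32 to 0.25 μg/mL final, in cation-adjusted Mueller Hinton broth.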

[3] = system: E. cloacae 144200 expressing Class C P99 AmpC; assay: broth microdilution MIC, E. cloacae P99; type: cell-based; conditions: Fixed CAZ (ceftazidime) 4 μg/mL
Method in brief: as §2

[4] = system: K. pneumoniae 156319 expressing KPC-3; assay: broth microdilution MIC, K. pneumoniae KPC-3; type: cell-based; conditions: Fixed Mero (meropenem) 4 μg/mL
Method in brief: as §2

[5] = system: K. pneumoniae A-1797 expressing KPC-2 and VIM-4; assay: broth microdilution MIC, K. pneumoniae KPC-2 and VIM-4; type: cell-based; conditions: Fixed Mero (meropenem) 4 μg/mL
Method in brief: as §2

[6] = imipenem substrate, 300 nm, 15 min at 37° C. preincubation, read-out: IC50 KPC-2 (Class A)

T1 sequence (P0A3M1 22-286): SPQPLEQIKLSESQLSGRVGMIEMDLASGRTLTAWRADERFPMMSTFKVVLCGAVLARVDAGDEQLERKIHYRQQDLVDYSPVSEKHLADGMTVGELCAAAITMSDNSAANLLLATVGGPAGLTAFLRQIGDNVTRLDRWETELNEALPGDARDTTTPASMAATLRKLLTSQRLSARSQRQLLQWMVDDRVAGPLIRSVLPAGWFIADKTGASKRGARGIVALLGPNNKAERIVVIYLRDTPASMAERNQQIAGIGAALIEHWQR

| SMILES | IC50 (SHV-5 β-lactamase) | IC50 (KPC-2 β-lactamase; [6]) | IC50 [1] | IC50 (p99 AmpC β-lactamase) | IC50 (OXA-1 β-lactamase) | MIC of exemplary compounds in presence of fixed β-lactams, E. coli ESBL4 CTX-M-15 [2] | MIC of exemplary compounds in presence of fixed β-lactams, E. cl. 144200 p99 AmpC [3] | MIC of exemplary compounds in presence of fixed β-lactams, K.P. 156319 KPC-3 [4] | MIC of exemplary compounds in presence of fixed β-lactams, K.P. A-1797 KPC-2 VIM-4 [5] | IC50 (KPC-2 β-lactamase) |
| --- | --- | --- | --- | --- | --- | --- | --- | --- | --- | --- |
| O=C(CCNS(=O)(=O)C(F)(F)F)N[C@H]1Cc2cccc(C(=O)O)c2OB1O [Example 52, (R)-2-Hydroxy-3-(3-trifluoromethanesulfonylamino-propionylamino)-3,4-dihydro-2H-benzo[e][1,2]oxaborinine-8-carboxylic acid] | < 100 nM | < 100 nM | 1000 to 10000 nM | < 100 nM | < 100 nM | C (C represents the MIC in the presence of ≤4 g/mL of a β-lactamase inhibitor) | C (C represents the MIC in the presence of ≤4 g/mL of a β-lactamase inhibitor) | B (B represents the MIC in the presence of between 8 and 32 g/mL of a β-lactamase inhibitor) | B (B represents the MIC in the presence of between 8 and 32 g/mL of a β-lactamase inhibitor) | – |
| C#CCCC(=O)N[C@H]1Cc2cccc(C(=O)O)c2OB1O [Example 37, (R)-2-Hydroxy-3-pent-4-ynoylamino-3,4-dihydro-2H-benzo[e][1,2]oxaborinine-8-carboxylic acid] | < 100 nM | – | 1000 to 10000 nM | < 100 nM | < 100 nM | C (C represents the MIC in the presence of ≤4 g/mL of a β-lactamase inhibitor) | C (C represents the MIC in the presence of ≤4 g/mL of a β-lactamase inhibitor) | C (C represents the MIC in the presence of ≤4 g/mL of a β-lactamase inhibitor) | B (B represents the MIC in the presence of between 8 and 32 g/mL of a β-lactamase inhibitor) | < 100 nM |
| NS(=O)(=O)CCC(=O)N[C@H]1Cc2cccc(C(=O)O)c2OB1O [Example 35, (R)-2-Hydroxy-3-(3-sulfamoyl-propionylamino)-3,4-dihydro-2H-benzo[e][1,2]oxaborinin-8-carboxylic acid] | < 100 nM | – | 100 to 1000 nM | < 100 nM | < 100 nM | C (C represents the MIC in the presence of ≤4 g/mL of a β-lactamase inhibitor) | C (C represents the MIC in the presence of ≤4 g/mL of a β-lactamase inhibitor) | C (C represents the MIC in the presence of ≤4 g/mL of a β-lactamase inhibitor) | C (C represents the MIC in the presence of ≤4 g/mL of a β-lactamase inhibitor) | < 100 nM |
| CS(=O)(=O)NCCC(=O)N[C@H]1Cc2cc(F)c(F)c(C(=O)O)c2OB1O [Example 51, (R)-6,7-Difluoro-2-hydroxy-3-(3-methanesulfonylamino-propionylamino)-3,4-dihydro-2H-benzo[e][1,2]oxaborinine-8-carboxylic acid] | < 100 nM | < 100 nM | 1000 to 10000 nM | < 100 nM | < 100 nM | C (C represents the MIC in the presence of ≤4 g/mL of a β-lactamase inhibitor) | C (C represents the MIC in the presence of ≤4 g/mL of a β-lactamase inhibitor) | C (C represents the MIC in the presence of ≤4 g/mL of a β-lactamase inhibitor) | B (B represents the MIC in the presence of between 8 and 32 g/mL of a β-lactamase inhibitor) | – |
| O=C(CCC(=O)C(F)(F)F)N[C@H]1Cc2cccc(C(=O)O)c2OB1O [Example 38, (R)-2-Hydroxy-3-(5,5,5-trifluoro-4-oxo-pentanoylamino)-3,4-dihydro-2H-benzo[e][1,2]oxaborinine-8-carboxylicacid] | < 100 nM | 100 to 1000 nM | 1000 to 10000 nM | < 100 nM | < 100 nM | B (B represents the MIC in the presence of between 8 and 32 g/mL of a β-lactamase inhibitor) | C (C represents the MIC in the presence of ≤4 g/mL of a β-lactamase inhibitor) | B (B represents the MIC in the presence of between 8 and 32 g/mL of a β-lactamase inhibitor) | B (B represents the MIC in the presence of between 8 and 32 g/mL of a β-lactamase inhibitor) | – |
| CC(=O)CC(=O)CCC(=O)N[C@H]1Cc2cccc(C(=O)O)c2OB1O [Example 41, (R)-3-(4,6-Dioxo-heptanoylamino)-2-hydroxy-3,4-dihydro-2H-benzo[e][1,2]oxaborinine-8-carboxylic acid] | < 100 nM | 100 to 1000 nM | < 100 nM | < 100 nM | < 100 nM | C (C represents the MIC in the presence of ≤4 g/mL of a β-lactamase inhibitor) | C (C represents the MIC in the presence of ≤4 g/mL of a β-lactamase inhibitor) | B (B represents the MIC in the presence of between 8 and 32 g/mL of a β-lactamase inhibitor) | C (C represents the MIC in the presence of ≤4 g/mL of a β-lactamase inhibitor) | – |
